Where “and” joins values, the source holds several entries; their conditions need not be identical. Equal entries are not always repeated. Where two headings read alike, the source gives them in different places.
What was measured:
Human protein Z (PZ) = target: T1, Human protein Z (PZ) (Homo sapiens, UniProt P22891); assay: SPR binding of porphyrins to immobilized PZ (single-cycle kinetics); conditions: for Kd: heterogenous ligand model
T1 construct: purchased CellSystems GmbH HCPZ-0220
Method: SPR experiments were conducted on a Biacore 8K instrument (Cytiva) to investigate the interaction of PZ with heme, as established before.^[ [19] ^, [35] ^, [37] ^, [43] ^] In brief, PZ (10 µg mL^−1) was dissolved in 10 mM sodium acetate buffer (pH 3.5) and immobilized onto a CM5 sensor chip via standard amine coupling, resulting in a final immobilization level of 767 RU. Heme (stock solution in 30 mM NaOH) was further diluted in running buffer (10 mM HEPES, 150 mM NaCl, and 0.05% Tween 20, pH 7.4). The same was performed with zinc (II) protoporphyrin IX and protoporphyrin IX (Frontier Scientific). Binding kinetics were assessed by injecting seven increasing concentrations of heme (187.5–12,000 nM) in a single‐cycle kinetics format at 25 °C and a flow rate of 30 µL min^−1. Data analysis was performed by global fitting using Biacore Insight Evaluation Software, version 3.0.12.15655 (Cytiva).

PZ [1] = target: T2, PZ (Homo sapiens, UniProt P22891); assay: Thrombin-inhibiting activity of PZ in the presence of heme (chromogenic assay); format: biochemical; conditions: PZ 10 nM, thrombin 30 nM, 30 min preincubation of PZ with heme; read-out: EC50 (increase of inhibitory activity of PZ against thrombin by heme)
T2 construct: purchased CellSystems GmbH HCPZ-0220 (PZ); HCXA-0060 (FXa)
T2 sequence (P22891 41-400): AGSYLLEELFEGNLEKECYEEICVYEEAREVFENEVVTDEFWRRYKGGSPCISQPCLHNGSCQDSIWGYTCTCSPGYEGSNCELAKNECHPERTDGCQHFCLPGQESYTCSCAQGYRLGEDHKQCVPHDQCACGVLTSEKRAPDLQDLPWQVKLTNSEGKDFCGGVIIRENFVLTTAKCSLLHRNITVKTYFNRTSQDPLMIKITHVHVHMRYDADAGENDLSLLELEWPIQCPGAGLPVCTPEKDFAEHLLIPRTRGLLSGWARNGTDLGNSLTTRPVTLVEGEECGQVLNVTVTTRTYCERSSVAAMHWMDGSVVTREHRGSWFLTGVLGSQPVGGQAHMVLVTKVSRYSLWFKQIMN
Method: Herein, an earlier established chromogenic thrombin amidolytic activity assay system was thus used, inspired by Hogg and Stenflo.^[ [19] ^, [28] ^] PZ (final concentration: 10 nM) was first incubated for 30 min with different heme concentrations (final concentrations: 1–1000 nM). […] Finally, 5 µL of the substrate solution (H‐D‐Phe‐Pip‐Arg‐pNA x 2 HCl (S‐2238); final concentration: 273 µM) was added. Immediately, kinetic measurements at 405 nm were started, using an Infinite 200 Pro spectrophotometer. Heme only, thrombin only, and PZ‐heme only served as controls. For evaluation, the thrombin activity was determined as the change of absorbance per second and always normalized against the basal thrombin activity without PZ. Data were analyzed as the mean of triplicate and the IC50 was calculated by nonlinear regression (GraphPad Prism, version 10.5.0).

PZ [2] = target: T2, PZ; assay: aPTT-based one-stage clotting assay: anticoagulant function of PZ against FXa in the presence of heme; format: biochemical; conditions: PZ 32 nM, FXa 0.1 nM; for impact alone on the procoagulant function of FXa or on clotting of pure plasma (aPTT): controls, heme 0.06 – 20 µM
Method: To estimate an effect on molecular level, the structure of the PZ–ZPI complex (PDB: 3H5C^[ [42] ^]) was first inspected with heme attached to PZ. The anticoagulant function of PZ was then analyzed in the presence of heme by a one‐stage clotting assay, which was inspired by previous work from us and others.^[ [19] ^, [27] ^] The aPTT‐based assay was performed with the ball coagulometer KC 4 A (Amelung, Lemgo, Germany). PZ (320 nM) was preincubated with different concentrations of heme (0–100 µM) for 30 min in 1x PBS, pH 7.4. Afterward, 50 µL of the PZ–heme mixture was incubated with 50 µL of Actin FSL, 50 µl CaCl2 (30 mM), and 50 µL FXa (0.5 nM) at 37 °C for 3 min. Finally, 50 µL citrated pooled plasma was added and the clotting time was automatically recorded. The following mixtures served as controls: 1) 50 µL PBS‐heme + 50 µL Actin FSL + 50 µL CaCl2 + 50 µL FXa + 50 µL citrated plasma, 2) 50 µL PBS‐heme + 50 µL Actin FSL + 50 µL CaCl2 + 50 µL PBS + 50 µL citrated plasma, 3) 50 µL PZ–heme + 50 µL Actin FSL + 50 µL CaCl2 + 50 µL PBS + 50 µL citrated plasma, 4) 50 µL PZ‐PBS + 50 µL Actin FSL + 50 µL CaCl2 + 50 µL FXa + 50 µL citrated plasma, 5) 50 µL PZ‐PBS + 50 µL Actin FSL + 50 µL CaCl2 + 50 µL PBS + 50 µL citrated plasma, 6) 50 µL PBS + 50 µL Actin FSL + 50 µL CaCl2 + 50 µL FXa + 50 µL citrated plasma, and 7) 50 µL PBS + 50 µL Actin FSL + 50 µL CaCl2 + 50 µL PBS + 50 µL citrated plasma. Final concentrations in the approach were 6 mM CaCl2, 0–20 µM heme, 32 nM and PZ, 0.1 nM FXa. Data were normalized against the clotting time of citrated plasma only (control (7)) and evaluated as the mean of triplicates. The IC50 was determined by fitting the curves with nonlinear regression (GraphPad Prism, version 10.5.0).

[3] = target: coagulation factor VIII (FVIII); set-up: method as in PMID 3105105, PMID 22471307, PMID 38631156; conditions: read-out: K D (heme binding to FVIII); cited from earlier work
fibrinogen = target: fibrinogen; set-up: method as in PMID 29322134, PMID 27229173; conditions: read-out: K D (heme binding to fibrinogen); cited from earlier work
[4] = target: activated protein C (APC); set-up: method as in PMID 32705892; conditions: read-out: K D (heme binding to APC); cited from earlier work

T1 sequence (P22891 41-400): as above

- k a1 (association rate) (Human protein Z (PZ); first binding event): 47300 M⁻¹ s⁻¹
- k d1 (dissociation rate) (Human protein Z (PZ); first binding event): 0.00583 s⁻¹
- Kd (Human protein Z (PZ); heme 187.5 nM–12 µM, 25 °C, read-out: K D1 (heme-binding affinity for PZ)): 123 nM
- Kd (Human protein Z (PZ); read-out: K D2 (second binding event, likely unspecific)): 8570 nM
- k a2 (association rate) (Human protein Z (PZ); second binding event): 845 M⁻¹ s⁻¹
- k d2 (dissociation rate) (Human protein Z (PZ); second binding event): 0.00724 s⁻¹
- EC50 (PZ [1]): 12.7 ± 6.36 nM
- heme level at which the procoagulant function of FXa was restored (PZ [2]): ≥ 2 µM
- IC50 (PZ [2]; heme 0.06–20 µM, citrated pooled plasma, read-out: IC50 (inhibition of the anticoagulant function of PZ against FXa)): 830 ± 210 nM
- impact alone on the procoagulant function of FXa or on clotting of pure plasma (aPTT) (PZ [2]): did not exert any significant impact
- impact alone on the procoagulant function of FXa or on clotting of pure plasma (aPTT) (PZ [2]; listed as Heme): did neither affect
Substance: Hemin [heme]
- Kd [3]: 2 to 13 nM
- Kd (fibrinogen): ~3000 nM and ~3300 nM
- Kd [4]: ~400 nM
